Reference: ChEMBL document CHEMBL4138100, “Novel anti-inflammatory agents targeting CXCR4: Design, synthesis, biological evaluation and preliminary pharmacokinetic study” (Eur J Med Chem, 2017)
Activity calls are given as the source filed them. The rule behind the calls is not given here.

Legend:
[1] = target: C-X-C chemokine receptor type 4 (Homo sapiens) (UniProt P61073); experiment: Inhibition of biotinylated TN14003 binding to CXCR4 in human MDA-MB-231 cells assessed as reduction in fluorescence preincubated for 10 mins followed by biotinylated-TN14003 addition measured after 30 mins by streptavidin-rhodamine staining based immunofluorescence microscopic analysis; format: cell-based
Sequence of C-X-C chemokine receptor type 4 (Homo sapiens) (P61073 whole entry): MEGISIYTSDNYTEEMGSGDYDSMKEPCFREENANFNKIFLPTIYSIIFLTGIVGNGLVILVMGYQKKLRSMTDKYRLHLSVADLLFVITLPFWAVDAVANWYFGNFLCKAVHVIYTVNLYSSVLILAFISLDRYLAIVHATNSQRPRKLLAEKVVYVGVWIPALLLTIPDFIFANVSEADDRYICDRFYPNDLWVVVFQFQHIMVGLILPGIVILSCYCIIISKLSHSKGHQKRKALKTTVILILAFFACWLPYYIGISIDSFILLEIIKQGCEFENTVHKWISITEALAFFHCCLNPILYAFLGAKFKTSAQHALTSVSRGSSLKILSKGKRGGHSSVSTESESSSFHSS

[2] = target: C-X-C chemokine receptor type 4 (Homo sapiens) (UniProt P61073); experiment: Inhibition of CXCR4-mediated chemotaxis in human MDA-MB-231 cells assessed as inhibition of CXCL12alpha-induced cell invasion at 100 nM after 22 hrs by hematoxylin/eosin dye-based matrigel assay relative to control; format: functional
Mus musculus [3] = experiment: Antiinflammatory activity in mouse assessed as inhibition of xylene-induced ear edema at 10 mg/kg, ip treated post 30 mins xylene treatment measured at 2 hrs post dose relative to control; format: functional
Mus musculus [4] = experiment: Antiinflammatory activity in mouse assessed as inhibition of xylene-induced increase in number of inflammatory cells in ear at 10 mg/kg, ip treated post 30 mins xylene treatment measured at 2 hrs post last dose by histological analysis; format: functional, organism-based
[5] = target: C-X-C chemokine receptor type 4 (Homo sapiens) (UniProt P61073); experiment: Inhibition of CXCR4 in human MDA-MB-231 cells assessed as reduction in CXCR4/[…] signaling-mediated Akt Ser473 phosphorylation by Western blot analysis; format: functional, cell-based
CXCR4 [6] = experiment: Selectivity index, ratio of antiproliferative activity in human MCF10A cells to EC for inhibition of biotinylated TN14003 binding to CXCR4 in human MDA-MB-231 cells; format: toxicity, cell-based; details: probe biotinylated TN14003, read-out: Selectivity Index
[7] = Stability in nude mouse plasma assessed as parent compound remaining at 30 mg/kg, iv after 50 mins by HPLC analysis; format: ADME, organism-based; details: read-out: Stability
Mus musculus [8] = experiment: Antiinflammatory activity in mouse assessed as inhibition of xylene-induced ear edema volume at 10 mg/kg, ip treated post 30 mins xylene treatment measured at 2 hrs post dose by histological analysis; format: functional, organism-based
MCF-10A = experiment: Antiproliferative activity in human MCF10A cells at 10 uM after 24 to 72 hrs by MTT assay; format: cell-based
MDA-MB-231 = experiment: Cytotoxicity against human MDA-MB-231 cells assessed as inhibition of cell proliferation at 10 uM after 24 to 72 hrs by MTT assay; format: cell-based; details: mda-mb-231, 10 µM
Mus musculus [9] = experiment: Antiinflammatory activity in mouse assessed as inhibition of xylene-induced ear thickness at 10 mg/kg, ip treated post 30 mins xylene treatment measured at 2 hrs post dose by histological analysis; format: functional, organism-based
[10] = Stability in nude mouse plasma assessed as parent compound remaining at 30 mg/kg, iv after 20 mins by HPLC analysis; format: ADME, organism-based; details: read-out: Stability
[11] = Half life in nude mouse plasma at 30 mg/kg, iv by HPLC analysis; format: ADME, organism-based
[12] = Stability in nude mouse plasma assessed as parent compound remaining at 30 mg/kg, iv after 5 mins by HPLC analysis; format: ADME, organism-based; details: read-out: Stability
CXCR4 [13] = experiment: Selectivity index, ratio of antiproliferative activity in human MDA-MB-231 cells to EC for inhibition of biotinylated TN14003 binding to CXCR4 in human MDA-MB-231 cells; format: toxicity, cell-based; details: probe biotinylated TN14003, read-out: Selectivity Index
[14] = Stability in nude mouse plasma assessed as parent compound remaining at 30 mg/kg, iv after 1 hr by HPLC analysis; format: ADME, organism-based; details: in vivo
[15] = target: C-X-C chemokine receptor type 4 (Homo sapiens) (UniProt P61073); experiment: Potency index, ratio of AMD3100 EC to compound EC for inhibition of biotinylated TN14003 binding to CXCR4 in human MDA-MB-231 cells; format: functional, cell-based

EC [1] [nM]	Structure (SMILES)	inhibition [2] [%]	further results
100	O=C(NCc1ccc(CNS(=O)(=O)c2ccccc2)cc1)c1ccc(Cl)cc1	< 50	
10	Cc1ccc(S(=O)(=O)NCc2ccc(CNC(=O)c3ccncc3)cc2)cc1	55	
10	Cc1ccc(S(=O)(=O)NCc2ccc(CNC(=O)c3ccc([N+](=O)[O-])cc3)cc2)cc1	55	
10	O=C(NCc1ccc(CNS(=O)(=O)c2ccccc2)cc1)c1ccncc1	> 60	inhibition in vivo at 10 mg/kg (Mus musculus [3]): 40%
1000	Cc1ccc(C(=O)NCc2ccc(CNS(=O)(=O)c3ccc(C)cc3)cc2)cc1		
10	O=C(NCc1ccc(CNS(=O)(=O)c2ccccc2)cc1)c1ccccc1Cl	> 60	inhibition (Mus musculus [3]): inactive
1000	COc1ccc(C(=O)NCc2ccc(CNS(=O)(=O)c3ccccc3)cc2)cc1		
1000	O=C(NCc1ccc(CNS(=O)(=O)c2ccccc2)cc1)c1ccccc1F		
1	Cc1ccc(S(=O)(=O)NCc2ccc(CNC(=O)c3ccc(F)cc3)cc2)cc1	> 60	inhibition (Mus musculus [4]): Active; inhibition [5]: Dose-dependent effect; selectivity ratio (CXCR4 [6]): 1000; remaining at 50 min [7]: 45%; inhibition (Mus musculus [8]): Active; Activity (MCF-10A): Non-Toxic; Activity (MDA-MB-231): Non-Toxic; inhibition (Mus musculus [9]): Active; remaining at 20 min [10]: 65%; inhibition in vivo at 10 mg/kg (Mus musculus [3]): 75%; half-life [11]: 40 min; remaining at 5 min [12]: 100%; selectivity ratio (CXCR4 [13]): 1000; Stability [14]: Stable
100	Cc1ccc(C(=O)NCc2ccc(CNS(=O)(=O)c3ccccc3)cc2)cc1	< 50	
10	O=C(NCc1ccc(CNS(=O)(=O)c2ccccc2)cc1)c1cccnc1	> 60	inhibition in vivo at 10 mg/kg (Mus musculus [3]): 53%
100	O=C(NCc1ccc(CNS(=O)(=O)c2ccccc2)cc1)c1cccc(F)c1	> 60	
10	Cc1ccc(S(=O)(=O)NCc2ccc(CNC(=O)c3c(Cl)cc(Cl)cc3Cl)cc2)cc1	55	
100	Cc1ccc(S(=O)(=O)NCc2ccc(CNC(=O)c3cccc(Cl)c3)cc2)cc1	> 60	inhibition in vivo at 10 mg/kg (Mus musculus [3]): 57%
1	Cc1ccccc1C(=O)NCc1ccc(CNS(=O)(=O)c2ccccc2)cc1	> 90	Ratio [15]: 1000; inhibition (Mus musculus [3]): inactive
1000	Cc1ccc(S(=O)(=O)NCc2ccc(CNC(=O)c3ccccc3F)cc2)cc1		
100	COc1ccccc1C(=O)NCc1ccc(CNS(=O)(=O)c2ccc(C)cc2)cc1	> 90	inhibition (Mus musculus [3]): inactive

EC [1] [nM]	Structure (SMILES)	inhibition [2] [%]	further results
10	O=C(NCc1ccc(CNS(=O)(=O)c2ccccc2)cc1)c1c(Cl)cc(Cl)cc1Cl	> 60	inhibition (Mus musculus [3]): inactive
> 1000	COc1cccc(C(=O)NCc2ccc(CNS(=O)(=O)c3ccccc3)cc2)c1		
100	O=C(NCc1ccc(CNS(=O)(=O)c2ccccc2)cc1)c1ccc([N+](=O)[O-])cc1	55	
100	COc1ccc(C(=O)NCc2ccc(CNS(=O)(=O)c3ccc(C)cc3)cc2)cc1	55	
> 1000	Cc1ccc(S(=O)(=O)NCc2ccc(CNC(=O)c3ccccc3)cc2)cc1		
1000	O=C(NCc1ccc(CNS(=O)(=O)c2ccccc2)cc1)c1cccc(Cl)c1		
1	COc1ccccc1C(=O)NCc1ccc(CNS(=O)(=O)c2ccccc2)cc1	> 90	Ratio [15]: 1000; inhibition (Mus musculus [3]): inactive
1	Cc1ccc(S(=O)(=O)NCc2ccc(CNC(=O)c3cccc(F)c3)cc2)cc1	55	Ratio [15]: 1000
10	COc1cccc(C(=O)NCc2ccc(CNS(=O)(=O)c3ccc(C)cc3)cc2)c1	> 90	inhibition in vivo at 10 mg/kg (Mus musculus [3]): 28%
1	O=C(NCc1ccc(CNS(=O)(=O)c2ccccc2)cc1)c1ccccc1	> 60	Ratio [15]: 1000; inhibition in vivo at 10 mg/kg (Mus musculus [3]): 62%
> 1000	Cc1ccc(S(=O)(=O)NCc2ccc(CNC(=O)c3cccnc3)cc2)cc1		
10	Cc1ccc(S(=O)(=O)NCc2ccc(CNC(=O)c3ccccc3Cl)cc2)cc1	> 90	inhibition in vivo at 10 mg/kg (Mus musculus [3]): 26%
100	Cc1ccc(S(=O)(=O)NCc2ccc(CNC(=O)c3ccccc3C)cc2)cc1	< 50	
10	Cc1ccc(S(=O)(=O)NCc2ccc(CNC(=O)c3ccc(Cl)cc3)cc2)cc1	> 60	inhibition in vivo at 10 mg/kg (Mus musculus [3]): 50%
1000	Cc1ccc(S(=O)(=O)NCc2ccc(CNC(=O)c3cccc(C)c3)cc2)cc1		
1000	Cc1cccc(C(=O)NCc2ccc(CNS(=O)(=O)c3ccccc3)cc2)c1		
100	O=C(NCc1ccc(CNS(=O)(=O)c2ccccc2)cc1)c1ccc(F)cc1	> 60	inhibition in vivo at 10 mg/kg (Mus musculus [3]): 40%
